# Assay results: PubChem BioAssay (NCI)
#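 Assay format: 96-well plates, 48-hour exposure. GI50 = concentration required for 50% inhibition of growth. TGI denotes the concentration required for complete inhibition of growth.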
# Assays:
# Assay in all cases: NCI anticancer screen, dose series, 48 h
# HCT-15 colon = system: HCT-15 colon
# NCI-H23 lung = system: NCI-H23 lung
# SF-539 CNS = system: SF-539 CNS
# NCI-H460 lung = system: NCI-H460 lung
# HCT-116 colon = system: HCT-116 colon
# OVCAR-8 ovarian = system: OVCAR-8 ovarian
# SK-MEL-2 melanoma = system: SK-MEL-2 melanoma
# HL-60(TB) leukemia = system: HL-60(TB) leukemia
# PC-3 prostate = system: PC-3 prostate
Compound,TGI (HCT-15 colon) [µM],TGI (NCI-H23 lung) [µM],TGI (SF-539 CNS) [µM],TGI (NCI-H460 lung) [µM],TGI (HCT-116 colon) [µM],TGI (OVCAR-8 ovarian) [µM],TGI (SK-MEL-2 melanoma) [µM],TGI (HL-60(TB) leukemia) [µM],GI50 (NCI-H23 lung) [µM],GI50 (NCI-H460 lung) [µM],GI50 (HCT-116 colon) [µM],GI50 (PC-3 prostate) [µM],TGI (PC-3 prostate) [µM],GI50 (HCT-15 colon) [µM],GI50 (SF-539 CNS) [µM],GI50 (OVCAR-8 ovarian) [µM],GI50 (SK-MEL-2 melanoma) [µM],GI50 (HL-60(TB) leukemia) [µM]
CC(=O)OC1C/C(C)=C/[C@H](O)CC(C)/C=C/[C@@]2(C)CCC(C(C)(C)O)C12 (some centres not stated),> 100,> 100,> 100,> 100,> 100,> 100,> 100,> 100,,,,,,,,,,
COC(=O)C1CCC(N2C(=O)CCC2C(=O)OC)=N1 (configuration not stated),> 100,> 100,,> 100,> 100,> 100,> 100,> 100,,,,,,,,,,
CC(C)[C@H](O)C(=O)N[C@H]1Cc2ccc3c(c2)[C@]24C5=C(N=C(O5)[C@H](C(C)C)NC1=O)c1nc(Cl)c(o1)-c1c(Cl)[nH]c5cccc(c15)-c1cccc2c1N[C@H]4O3,> 10,3.82,0.083,1.21,,,,,< 0.001,< 0.001,< 0.001,< 0.001,> 10,,,,,
Cc1cccc(NC(=O)Cc2nc3ccccc3s2)c1C,> 100,> 100,> 100,> 100,,> 100,> 100,> 100,,,,,,,,,,
C=CC1=C(C)C(Cc2[nH]c(/C=c3\[nH]/c(=C/C4=NC(=O)C(C)/C4=C\C)c(C)c3CCC(=O)O)c(CCC(=O)OC)c2C)NC1=O (configuration not stated),53.9,53.6,54.4,> 100,36.9,> 100,39.4,> 100,28.3,21.7,19.8,32.9,> 100,21.6,25.1,34.9,20.1,39.8
Oc1oc(-c2ccccc2)nc1/C=C1/C=NN=N1,> 100,> 100,> 100,> 100,> 100,> 100,> 100,> 100,,,,,> 100,,,,,
O=C1C(Nc2cccc(O)c2)=C(Sc2ccc(Cl)cc2)C(=O)N1Cc1ccccc1,33.9,37.5,,> 100,33.2,34.8,> 100,,6.77,5.61,5.45,4.66,24.7,10.2,,6.03,28.3,
C[C@@]1(CBr)C[C@@](C)(/C=C/Cl)[C@@H](Cl)C[C@H]1Cl,,27.9,27.9,,21.2,29.9,8.46,8.6,,,,,,,,,,
CN(C(=O)C1CC1)C1C2CN3CCC(O2)C13 (configuration not stated),> 100,> 100,> 100,> 100,> 100,,> 100,> 100,,,,,,,,,,
CC(=O)Oc1cc(OC(C)=O)c2cc3c(cc2c1OC(C)=O)C(=O)C1(CCCC1)C3=O,39.3,34.1,,33.1,,31.6,,73.6,,,,,,,,,,
CN(C)C(=S)/N=c1\ssc(=S)n1Cc1ccccn1,> 100,> 100,45.5,16.8,> 100,> 100,5.98,> 19.8,,,,,,,,,,
CC(=O)[CH-]C(=O)c1ccccc1.CC(=O)[CH-]C(=O)c1ccccc1.CC12CC3(C)CC(C)(C1)CC([O-])(C2)C3.CC[O-].[Ti+4],,34.4,38.5,46,50.6,> 100,,> 100,18.1,16.8,18.8,,,,17.5,27.7,,27.8
COC(=O)NN=C1C(C)(C)C(=NNC(=O)OC)C1(C)C,> 100,> 78.1,> 100,> 100,> 62.5,> 55.9,> 100,> 100,,,,,,,,,,
CC(C)(C)[Si](Nc1ccccc1)(c1ccccc1)c1ccccc1,28.4,32.8,25,37.7,20.6,34,35.8,31.3,,,,,,,,,,
O/N=C1/C(=C/c2ccc(Cl)cc2)CCCC1C(NO)c1ccc(Cl)cc1 (configuration not stated),46.8,54,88.1,35.3,67.1,55.3,68.5,43.3,,,,,,,,,,
O=C(Cc1nc2ccccc2s1)C(=O)Nc1ccc(Cl)cc1Cl,> 100,> 100,> 100,> 100,> 100,> 100,> 100,,,,,,,,,,,
CN(C)NC(=S)NC12CC3CC(CC(C3)C1)C2,> 100,> 100,> 100,> 100,> 100,> 100,> 100,> 100,,,,,,,,,,

Compound,TGI (HCT-15 colon) [µM],TGI (NCI-H23 lung) [µM],TGI (SF-539 CNS) [µM],TGI (NCI-H460 lung) [µM],TGI (HCT-116 colon) [µM],TGI (OVCAR-8 ovarian) [µM],TGI (SK-MEL-2 melanoma) [µM],TGI (HL-60(TB) leukemia) [µM],GI50 (NCI-H23 lung) [µM],GI50 (NCI-H460 lung) [µM],GI50 (HCT-116 colon) [µM],GI50 (PC-3 prostate) [µM],TGI (PC-3 prostate) [µM],GI50 (HCT-15 colon) [µM],GI50 (SF-539 CNS) [µM],GI50 (OVCAR-8 ovarian) [µM],GI50 (SK-MEL-2 melanoma) [µM],GI50 (HL-60(TB) leukemia) [µM]
CCCCCC/C=C/CCCCCCCc1cccc(O)c1C(=O)O,> 100,> 100,> 100,> 100,> 100,> 100,> 100,> 100,,,,,,,,,,
C[n+]1ccc2[nH]c3ccccc3c2c1,> 100,> 100,> 100,> 100,> 100,> 100,> 100,> 100,,,,,,,,,,
Cn1c(=O)c2[nH]cnc2n(CC(=O)O)c1=O,> 100,> 100,> 100,> 100,> 100,> 100,> 100,,,,,,,,,,,
O=C(Nc1ccccc1)OCc1nc2c([nH]1)C(=O)C=CC2=O,38,40,> 100,36.8,28.4,34,34.2,15.2,,,,,,,,,,
COc1cc(CCC(=O)NS(=O)(=O)c2ccccc2)cc(OC)c1OC,,> 100,> 100,> 100,> 100,> 100,> 100,> 100,,,,,,,,,,
C/C(CC(=O)Nc1ccc(NC(=O)/C(C)=N/NS(=O)(=O)c2ccc(C)cc2)cc1)=N\NS(=O)(=O)c1ccc(C)cc1,> 100,> 100,> 100,> 100,> 100,> 100,> 100,> 100,,,,,,,,,,
NC(=O)C12CCC1C1CCCCC12N1CCOCC1 (configuration not stated),> 100,> 100,> 100,> 100,> 100,> 100,> 100,> 100,,,,,,,,,,
CC(=O)NNc1nc(C)c(C(/C=C/c2ccc(Cl)cc2)=N/NC(=S)NN)s1,> 100,> 100,> 100,> 100,> 100,> 100,> 100,> 100,,,,,,,,,,
COc1cc(C(=C2SCCS2)c2nccc3cc(OC)c(OC)cc23)c([N+](=O)[O-])cc1OC,,> 100,> 100,,> 100,> 100,> 100,94.6,,,,,,,,,,
N#CNc1nc(C(=O)Nc2ccc(Cl)cc2)cc(-c2ccccc2)n1,> 100,> 100,> 100,,> 100,> 100,> 100,> 100,,,,,,,,,,
CCc1ccccc1NC(=O)C1=C(C)NC(C)=C(C(=O)Nc2ccccc2CC)C1c1ccc(NC(C)=O)cc1,,> 100,68,> 100,> 100,> 100,70.1,39.5,,,,,,,,,,
CC(=O)[CH-]C(=O)c1ccccc1.CC(=O)[CH-]C(=O)c1ccccc1.CC[O-].O=C1C=C([O-])C(=O)c2ccccc21.[Ti+4],> 100,> 100,> 100,> 100,> 100,> 100,86.3,80,10.8,71.9,62.5,,,56.2,> 100,> 100,9.07,16.1
CN(/C(=N\O)c1ccccc1)c1ccccc1,,61.2,49.6,> 100,> 100,64.9,70.1,48.7,,,,,,,,,,
CN(Cc1ccccc1)c1nc(=[N+](C)C)ss1,> 100,> 100,> 100,> 100,> 100,> 100,> 100,> 100,,,,,,,,,,
O/N=C1/C(=C/c2ccccc2)CCCC1C(NO)c1ccccc1 (configuration not stated),> 100,> 100,> 100,> 100,> 100,> 100,> 100,5.03,,,,,,,,,,
COc1ccc(Cn2c3c(c4c(O)cccc42)C(=O)c2ccccc2-3)cc1,89.8,22,,36.5,21.5,13.2,45.9,,9.24,12.8,9.16,12.8,25.4,16.1,,3.08,18.2,
COC(=O)C(C(=O)C(=O)Nc1ccc(C)cc1C)c1nc2ccc([N+](=O)[O-])cc2[nH]c1=O (configuration not stated),> 100,> 100,> 100,> 100,> 100,> 100,> 100,> 100,,,,,,,,,,
